According to patent US6596705B1, “Inhibition of L-selectin and P-selection mediated binding using heparin” (The Regents of the University of California, priority 1998, dated 2003):

What was measured:
L-selectin = assay: ELISA inhibition of L-selectin binding to immobilized SLe^x; conditions: average of 2-3 experiments, concentration from assumed average molecular weight
Description: (§1) ELISA inhibition assays were performed as previously reported (O'Connell et al., Proc. Natl. Acad. Sci. USA 93:5883-5887 (1996); Koenig et al., supra, 1997). Sterile 96 well ELISA plates were coated with 200 ng of polyacrylamide-SLe^x (Glycotech; Rockville Md.) by overnight incubation at […] in 100 μl of 50 mM sodium carbonate/bicarbonate buffer, pH 9.5. Plates were blocked for at least 2 hours at 4° C. with 200 μl of 20 mM Hepes, 125 mM NaCl, 2 mM CaCl2, 2 mM MgCl2, 1% protease-free BSA, pH 7.45 (osmolarity 290 milliosmoles) per well. During the blocking step, the selectin-Rg chimeras were separately preincubated at 4° C. with a peroxidase-conjugated goat anti-human IgG secondary antibody (Jackson Immunoresearch Laboratories, Inc.; West Grove Pa.) in assay buffer for approximately 1 hour.
(§2) Final selectin-Rg concentration was 20 nM, and the secondary antibody dilution was 1:1000. […]
(§3) These tubes were preincubated at 4° C. for 30 minutes, then added to ELISA plates, in duplicates, to a well volume of 100 μl. […] The absorbance at 492 nm was determined using SOFTMAX software and a microplate reader (Molecular Devices Inc., Menlo Park Calif.). Prior to curve fitting, the absorbance values were converted into percentages for comparative purposes using the formula: ({(average of duplicates)−(negative control)}/{(positive control)−(negative control)})×100) using the SOFTMAX software.

P-selectin = assay: ELISA inhibition of P-selectin binding to immobilized SLe^x; conditions: average of 2-3 experiments, concentration from assumed average molecular weight
Description: as §1, §2, §3

P-selectin, sequence (P16109 42-195 limits assumed): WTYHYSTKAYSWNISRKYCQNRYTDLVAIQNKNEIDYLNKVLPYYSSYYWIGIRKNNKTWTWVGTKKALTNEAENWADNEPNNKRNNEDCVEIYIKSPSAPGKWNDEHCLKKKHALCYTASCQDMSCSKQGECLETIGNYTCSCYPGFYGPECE
L-selectin, sequence (P14151 39-318 limits assumed): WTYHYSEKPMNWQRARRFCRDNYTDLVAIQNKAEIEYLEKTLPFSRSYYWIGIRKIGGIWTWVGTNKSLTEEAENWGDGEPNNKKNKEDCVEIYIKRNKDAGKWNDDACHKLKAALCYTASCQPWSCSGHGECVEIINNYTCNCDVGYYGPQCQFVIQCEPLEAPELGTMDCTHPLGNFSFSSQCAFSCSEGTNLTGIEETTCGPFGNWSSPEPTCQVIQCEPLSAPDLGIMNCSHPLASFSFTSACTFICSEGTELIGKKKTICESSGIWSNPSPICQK

IC50 (L-selectin): 600 µM
IC50 (P-selectin): 520 µM
Substance: Siao2-3 Galβ1-4 (Fucal-3) GlcNAc [Sialyl Lewis^x]
